Measured values as given in BindingDB's records for doi:10.7270/Q2W37TVH (Novartis Pharma, 1997).
pIC50: −log10 of the molar value.

Each compound was assayed against Dihydroorotate dehydrogenase (quinone), mitochondrial (Homo sapiens, UniProt Q02127) (assay: Spectrophotometric Assay).
Chain of Dihydroorotate dehydrogenase (quinone), mitochondrial (Q02127 whole entry): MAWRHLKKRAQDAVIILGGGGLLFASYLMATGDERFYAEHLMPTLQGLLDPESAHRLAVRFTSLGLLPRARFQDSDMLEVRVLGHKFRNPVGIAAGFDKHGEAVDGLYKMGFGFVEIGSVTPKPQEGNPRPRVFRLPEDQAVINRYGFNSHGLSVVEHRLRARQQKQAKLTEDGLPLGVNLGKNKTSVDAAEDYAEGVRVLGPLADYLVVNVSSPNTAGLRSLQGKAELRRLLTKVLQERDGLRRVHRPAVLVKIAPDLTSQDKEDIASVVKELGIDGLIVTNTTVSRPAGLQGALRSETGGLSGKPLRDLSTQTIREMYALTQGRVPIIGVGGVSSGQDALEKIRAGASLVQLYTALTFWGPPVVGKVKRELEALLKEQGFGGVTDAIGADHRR
Description: Spectrophotometric assay using crude human, recombinant DHODHase.
Compound N#Cc1ccc(NC(=O)C(C#N)C(=O)C2CC2)cc1 (stereo not drawn) [Alpha-cyano-beta-hydroxy enamide, 6] has a pIC50 of 6.22.
CC(=O)C(C#N)C(=O)Nc1ccccc1 (stereo not drawn) [Alpha-cyano-beta-hydroxy enamide, 2] gave a pIC50 of 4.82.
For CC(=O)C(C#N)C(=O)Nc1ccc(C#N)cc1 (stereo not drawn) [Alpha-cyano-beta-hydroxy enamide, 3], the pIC50 was 5.89.
N#C/C(C(=O)Nc1ccc(C(F)(F)F)cc1)=C1\CCCCO1 [Tetrahydropyranyl derivative, 8 (Z)] showed a pIC50 of under 4.30.
N#C/C(C(=O)Nc1ccc(C(F)(F)F)cc1)=C1\CCCO1 [Tetrahydrofuranyl derivative, 7 (Z)] gave a pIC50 of under 4.30.
N#C/C(C(=O)Nc1ccc(C(F)(F)F)cc1)=C1/CCOC1 [Tetrahydrofuranyl derivative, 7 (E)] showed a pIC50 of under 4.30.
N#C/C(C(=O)Nc1ccc(C(F)(F)F)cc1)=C1/CCCCO1 [Tetrahydropyranyl derivative, 8 (E)] showed a pIC50 of under 4.30.
With CC(C)(C)CCC(=O)C(C#N)C(=O)Nc1ccc(C(F)(F)F)cc1 (stereo not drawn) [Alpha-cyano-beta-hydroxy enamide, 5] the pIC50 was 6.89.
With CC(C)(C)C(=O)C(C#N)C(=O)Nc1ccc(C(F)(F)F)cc1 (stereo not drawn) [Alpha-cyano-beta-hydroxy enamide, 4] the pIC50 was 4.79.
